Columns and labels:
[1] = system: ACTB^HSV-TK-mPlum;NANOG^iCasp9-YFP hPSC-derived liver, bone and forebrain progenitors; assay: Ganciclovir treatment of differentiated progenitors, cell counting at day 6; assay type: cell-based, human; settings: ganciclovir for last 24 hours of differentiation
[2] = system: ACTB^HSV-TK-mPlum;NANOG^iCasp9-YFP hPSCs; assay: Quantification of cell death after ganciclovir treatment of hPSCs; assay type: cell-based, human
Experimental: (§1) FIG. 5: Implementation of the ACTB^TK-mPlum safety switch. A) NANOG^iCasp9-YFP;ACTB^TK-mPlum hESCs were treated with ganciclovir (or left untreated) for 24 hours, and subsequently ganciclovir was withdrawn and hESCs were cultured for 1 week in mTeSR1 to detect any surviving cells and to allow them to regrow. […] N.D.=not detected. B) NANOG^iCasp9-YFP;ACTB^TK-mPlum hESCs were differentiated into day 6 liver, sclerotome and neural progenitors and treated with ganciclovir at the indicated doses for the last 24 hours of differentiation. Cell survival was analyzed by counting at day 6 of differentiation. C) 10^6 NANOG^iCasp9-YFP; ACTB^TK-mPlum hESCs engineered to express CAG-AkaLuciferase were treated with control media or 1 nM AP20187 for 24 hours, and then subcutaneously transplanted into the right and left dorsal flanks of NOD-SCID Il2rg^−/− mice (10^6 cells per flank). After 3 weeks post-transplant, teratomas formed in vivo and ganciclovir was administered daily at 50 mg/kg until week 7 post-transplant. Bioluminescent imaging of mice was conducted weekly for 7 weeks. Total flux (photons/sec) was measured for each animal and were averaged.
Quantification of cell death after ganciclovir treatment. […] At the end of 6 days of culture in mTeSR1 alone, the number of surviving live cells was counted.

[3] = system: teratomas from ACTB^HSV-TK-mPlum;NANOG^iCasp9-YFP hPSCs; assay: Elimination of teratomas using ganciclovir in vivo (bioluminescent imaging); design: species or system NSG mice; settings: week 7 post-transplantation, 4 weeks after initiating ganciclovir 50 mg/kg daily
Experimental: as §1, with “After 3 weeks post-transplant, teratomas formed in vivo and ganciclovir was administered daily at 50 mg/kg until week 7 post-transplant. Bioluminescent imaging of mice was conducted weekly for 7 weeks.” left out
FIG. 10: Supporting data for ACTB^TK-mPlum safety switch (related to FIGS. 4-5). […] Total flux (photons/sec) was measured for each animal.
Bioluminescent imaging. […] Subsequent image analysis was done in Aura with regions of interest (ROIs) drawn for each mouse to calculate Total Flux (photons/sec) in order to quantify teratoma growth over time. […]

[4] = system: ACTB^TK-mPlum;NANOG^iCasp9-YFP hESCs (iCaspase9-expressing cells); assay: AP21967 treatment of iCaspase9-expressing cells (cross-reactivity check); assay type: cell-based, human; settings: AP21967 24 hours
[5] = system: ACTB^OiCasp9-mPlum;NANOG^iCasp9-YFP hPSCs and differentiated liver, bone and neural progenitors; assay: Killing of ACTB^OiCasp9-mPlum;NANOG^iCasp9-YFP hPSCs and differentiated derivatives by AP21 or AP20 (alamar blue); assay type: cell-based, human; settings: dual-transgenic line; 1 nM, 24 hours
Experimental: FIG. 6: Rationale, design and implementation of the ACTB^OiCasP9-mPlum safety switch. A) Intended application of the dual ACTB^OiCasp9-mPlum;NANOG^iCasp9-YFP safeguard. B) Cas9 RNP/AAV6-based knock-in strategy for ACTB^iCasp9-mPlum targeting, which was performed in the NANOG^iCasp9-YFP hESC line. C) 5×10^5 ACTB^OiCasp9-mPlum; NANOG^iCasp9-YFP hESCs were treated with control media or 1-1000 nM AP21967 for 24 hours. Cell viability was analyzed using alamar blue. D) ACTB^OiCasp9-mPlum;NANOG^iCasp9-YFP and ACTB^TK-mPlum; NANOG^iCasp9-YFP hESCs (negative control), in addition to their respective differentiated derivatives, were treated for 24 hours with 1 nM of AP21967. E) 5×10^5 ACTB^OiCasp9-mPlum; NANOG^iCasp9-YFP hESCs, and their respective differentiated derivatives, were treated with control media, 1 nM of AP21967 or and 1 nM of AP20187 for 24 hours. Surviving cells were analyzed by alamar blue. F) 10^6 ACTB^OiCasp9-mPlum;NANOG^iCasp9-YFP hESCs engineered to express CAG-AkaLuciferase were treated with control media or 1 nM AP20187 for 24 hours, and then subcutaneously transplanted into the right and left dorsal flanks of NOD-SCID Il2rg^−/− mice (10^6 cells per flank). 4 weeks post-transplant, teratomas formed and AP21967 was intraperitoneally administered once at 10 mg/kg. […] Total flux (photons/sec) was measured for each animal and was averaged.

[6] = system: H9 undifferentiated hPSCs and hPSC-derived neural, liver, and sclerotome cells; assay: YM155 treatment, cell viability by alamar blue; assay type: cell-based, human; settings: YM155 10 nM or 2 μM, 24 hours
Source text: FIG. 7: Marker expression during hPSC differentiation and evaluation of past safety switches (related to FIG. 2). A) i) Flow cytometry analysis of widely-used pluripotency surface markers SSEA-3, SSEA-4, TRA-1-60, TRA-1-81 and PODXL1^20,21 before and during differentiation into endodermal, mesodermal and ectodermal lineages for 1-6 days. Positive gates were set based on unstained negative controls. ii) Gene expression analysis of previously reported safety system genes CDK1, TERT, SCD1, PODXL1 and SURVIVIN before and during differentiation into endodermal, mesodermal and ectodermal lineages. Expression of lineage markers is depicted normalized to the reference gene YWHAZ (i.e., YWHAZ=1.0). B) Widely-used pluripotency surface markers such as SSEA-3, SSEA-4, TRA-1-60, TRA-1-81 and PODXL1^20,21 were not exclusive to pluripotent cells. […] Unstained hESCs (top row; grey shading) were used as a negative control to set positive gates (dotted vertical lines). […] D) H9 undifferentiated hPSCs and hPSC-derived neural, liver, and sclerotome cells (generated after 6 days of differentiation) were treated for 24 hours with YM155 (either 10 nM or 2 μM), a small molecule SURVIVIN inhibitor, and cell viability was assessed using alamar blue.

With Nc1nc(O)c2ncn(COC(CO)CO)c2n1 [ganciclovir] the “in vitro proliferation of derivative liver, bone and forebrain progenitors” value [1] was “broadly blocked the in vitro proliferation”, the “in vitro proliferation of hPSCs” value ([2]; ganciclovir 24 hours, then 1 week in mTeSR1) was “broadly blocked the in vitro proliferation” and the “cell death in hPSCs” value ([2]; three days post-GCV treatment (0.5-2 μM, 24 hours)) was “cell death was observed”. For the same compound, the “detectable teratomas by bioluminescent imaging” value [3] was “no ganciclovir-treated mice had detectable teratomas”.

For CO[C@H]1[C@@H](O)[C@H](C)C[C@H](C)/C=C/C=C/C=C(\C)[C@@H](c2c[nH]c3c(C)cccc23)C[C@@H]2CC[C@@H](C)[C@@](O)(O2)C(=O)C(=O)N2CCCC[C@H]2C(=O)O[C@H]([C@H](C)C[C@@H]2CC[C@@H](O)[C@H](OC)C2)C[C@H](O)[C@H](C)/C=C(\C)[C@H]1O [AP21], the “killing of iCaspase9-expressing cells” value [4] was “does not kill iCaspase9-expressing cells” and the “killing of undifferentiated and differentiated cells” value [5] was “kill both undifferentiated hPSCs and differentiated liver, bone and neural progenitors”.

With COCCn1c2c([n+](Cc3cnccn3)c1C)C(=O)c1ccccc1C2=O [YM155] the “cell killing (viability)” value [6] was “killed both undifferentiated and differentiated hPSCs”.
